From PubChem BioAssay (NCI)
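1) Cells in 96-well plates. 2) Compound, 48 h, 5 concentrations. 3) Linear interpolation between surrounding doses. 4) Unreached endpoint = highest concentration. The concentration for 50% growth inhibition is given as GI50. TGI: total growth inhibition.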

Assays:
Assay in all cases: NCI anticancer screen, dose series, 48 h
TK-10 renal = tested on: TK-10 renal
MDA-MB-468 breast = tested on: MDA-MB-468 breast
786-0 renal = tested on: 786-0 renal
MDA-MB-435 = tested on: MDA-MB-435
NCI-H23 lung = tested on: NCI-H23 lung
MALME-3M melanoma = tested on: MALME-3M melanoma
A549 NSCLC = tested on: A549 NSCLC
OVCAR-8 ovarian = tested on: OVCAR-8 ovarian
EKVX NSCLC = tested on: EKVX NSCLC
T-47D breast = tested on: T-47D breast
SK-MEL-5 melanoma = tested on: SK-MEL-5 melanoma
CAKI-1 renal = tested on: CAKI-1 renal
IGROV1 ovarian = tested on: IGROV1 ovarian
OVCAR-4 ovarian = tested on: OVCAR-4 ovarian
NCI-H226 lung = tested on: NCI-H226 lung
UACC-62 melanoma = tested on: UACC-62 melanoma
UACC-257 melanoma = tested on: UACC-257 melanoma
SK-MEL-28 melanoma = tested on: SK-MEL-28 melanoma
HS 578T breast = tested on: HS 578T breast
DU-145 prostate = tested on: DU-145 prostate
SF-295 CNS = tested on: SF-295 CNS
NCI/ADR-RES ovarian = tested on: NCI/ADR-RES ovarian
UO-31 renal = tested on: UO-31 renal
HCT-116 colon = tested on: HCT-116 colon
HOP-62 NSCLC = tested on: HOP-62 NSCLC
NCI-H522 lung = tested on: NCI-H522 lung
U251 CNS = tested on: U251 CNS
K-562 leukemia = tested on: K-562 leukemia
CCRF-CEM leukemia = tested on: CCRF-CEM leukemia
A498 renal = tested on: A498 renal
PC-3 prostate = tested on: PC-3 prostate
COLO 205 colon = tested on: COLO 205 colon
SN12C renal = tested on: SN12C renal
SK-MEL-2 melanoma = tested on: SK-MEL-2 melanoma
SNB-19 CNS = tested on: SNB-19 CNS
RXF 393 renal = tested on: RXF 393 renal
ACHN renal = tested on: ACHN renal
SW-620 colon = tested on: SW-620 colon
M14 melanoma = tested on: M14 melanoma
NCI-H460 lung = tested on: NCI-H460 lung
SNB-75 CNS = tested on: SNB-75 CNS
OVCAR-5 ovarian = tested on: OVCAR-5 ovarian
LOX IMVI melanoma = tested on: LOX IMVI melanoma
KM12 colon = tested on: KM12 colon
OVCAR-3 ovarian = tested on: OVCAR-3 ovarian
HOP-92 NSCLC = tested on: HOP-92 NSCLC
MDA-MB-231 breast = tested on: MDA-MB-231 breast
SK-OV-3 ovarian = tested on: SK-OV-3 ovarian
MCF7 breast = tested on: MCF7 breast
HCC-2998 colon = tested on: HCC-2998 colon
MOLT-4 leukemia = tested on: MOLT-4 leukemia
SF-268 CNS = tested on: SF-268 CNS
SF-539 CNS = tested on: SF-539 CNS
SR leukemia = tested on: SR leukemia
RPMI-8226 leukemia = tested on: RPMI-8226 leukemia
HCT-15 colon = tested on: HCT-15 colon
HL-60(TB) leukemia = tested on: HL-60(TB) leukemia
BT-549 breast = tested on: BT-549 breast
HT29 colon = tested on: HT29 colon

`CCCn1c(=O)c2[nH]c(-c3ccc(OCc4nc5ccc(C)cc5[nH]4)cc3)nc2n(CCC)c1=O` was tested, and the GI50 (TK-10 renal) was 10.7 µM, the TGI (TK-10 renal) was 23.1 µM and the GI50 (MDA-MB-468 breast) was 8.62 µM. The TGI (MDA-MB-468 breast) was 27.6 µM, the GI50 (786-0 renal) was 3.06 µM and the TGI (786-0 renal) was 12.1 µM. It also gave a GI50 (MDA-MB-435) of 31 µM, a TGI (MDA-MB-435) greater than 100 µM and a GI50 (NCI-H23 lung) of 12 µM. For the same compound, the TGI (NCI-H23 lung) was 24.4 µM, the GI50 (MALME-3M melanoma) was 7.28 µM and the TGI (MALME-3M melanoma) was 20.5 µM. The GI50 (A549 NSCLC) was 13.5 µM, the TGI (A549 NSCLC) was greater than 100 µM and the GI50 (OVCAR-8 ovarian) was 5.3 µM. For the same compound, the TGI (OVCAR-8 ovarian) was 24.8 µM, the GI50 (EKVX NSCLC) was 20.7 µM and the TGI (EKVX NSCLC) was greater than 100 µM. The GI50 (T-47D breast) was 16.9 µM, the TGI (T-47D breast) was 47.2 µM and the GI50 (SK-MEL-5 melanoma) was 13.7 µM. The TGI (SK-MEL-5 melanoma) was 31.5 µM, the GI50 (CAKI-1 renal) was 4.55 µM and the TGI (CAKI-1 renal) was 25.1 µM. It also gave a GI50 (IGROV1 ovarian) of 10.1 µM, a TGI (IGROV1 ovarian) of 38.7 µM and a GI50 (OVCAR-4 ovarian) of 2.73 µM. For the same compound, the TGI (OVCAR-4 ovarian) was greater than 100 µM, the GI50 (NCI-H226 lung) was 2.91 µM and the TGI (NCI-H226 lung) was 13.2 µM. For the same compound, the GI50 (UACC-62 melanoma) was 10 µM, the TGI (UACC-62 melanoma) was 25.6 µM and the GI50 (UACC-257 melanoma) was 40.9 µM. It also gave a TGI (UACC-257 melanoma) greater than 100 µM, a GI50 (SK-MEL-28 melanoma) of 15.9 µM and a TGI (SK-MEL-28 melanoma) greater than 100 µM. It also gave a GI50 (HS 578T breast) of 2.36 µM, a TGI (HS 578T breast) of 11.1 µM and a GI50 (DU-145 prostate) of 66.4 µM. For the same compound, the TGI (DU-145 prostate) was greater than 100 µM, the GI50 (SF-295 CNS) was 2.65 µM and the TGI (SF-295 CNS) was 13.1 µM. It also gave a GI50 (NCI/ADR-RES ovarian) of 11 µM, a TGI (NCI/ADR-RES ovarian) of 64.5 µM and a GI50 (UO-31 renal) of 1.98 µM. For the same compound, the TGI (UO-31 renal) was 7.27 µM, the GI50 (HCT-116 colon) was 11.3 µM and the TGI (HCT-116 colon) was 27.8 µM. For the same compound, the GI50 (HOP-62 NSCLC) was 4.12 µM, the TGI (HOP-62 NSCLC) was 16.9 µM and the GI50 (NCI-H522 lung) was 17.2 µM. For the same compound, the TGI (NCI-H522 lung) was 42.3 µM, the GI50 (U251 CNS) was 4.06 µM and the TGI (U251 CNS) was 17 µM. For the same compound, the GI50 (K-562 leukemia) was 22.3 µM, the TGI (K-562 leukemia) was greater than 100 µM and the GI50 (CCRF-CEM leukemia) was 32.8 µM. The TGI (CCRF-CEM leukemia) was greater than 100 µM, the GI50 (A498 renal) was 2.43 µM and the TGI (A498 renal) was 10.6 µM. The GI50 (PC-3 prostate) was 9.66 µM, the TGI (PC-3 prostate) was greater than 100 µM and the GI50 (COLO 205 colon) was 84.7 µM. The TGI (COLO 205 colon) was greater than 100 µM, the GI50 (SN12C renal) was 3.78 µM and the TGI (SN12C renal) was 18.1 µM. The GI50 (SK-MEL-2 melanoma) was 16.8 µM, the TGI (SK-MEL-2 melanoma) was 33.2 µM and the GI50 (SNB-19 CNS) was 6 µM. It also gave a TGI (SNB-19 CNS) of 28.6 µM, a GI50 (RXF 393 renal) of 1.62 µM and a TGI (RXF 393 renal) of 5.12 µM. For the same compound, the GI50 (ACHN renal) was 3.29 µM, the TGI (ACHN renal) was 13.4 µM and the GI50 (SW-620 colon) was 32.5 µM. It also gave a TGI (SW-620 colon) greater than 100 µM, a GI50 (M14 melanoma) of 21.3 µM and a TGI (M14 melanoma) greater than 100 µM. It also gave a GI50 (NCI-H460 lung) of 6.04 µM, a TGI (NCI-H460 lung) of 23.1 µM and a GI50 (SNB-75 CNS) of 1.54 µM. It also gave a TGI (SNB-75 CNS) of 4.62 µM, a GI50 (OVCAR-5 ovarian) of 18.5 µM and a TGI (OVCAR-5 ovarian) of 76.8 µM. For the same compound, the GI50 (LOX IMVI melanoma) was 4.72 µM, the TGI (LOX IMVI melanoma) was 17.3 µM and the GI50 (KM12 colon) was greater than 100 µM. It also gave a TGI (KM12 colon) greater than 100 µM, a GI50 (OVCAR-3 ovarian) of 8.62 µM and a TGI (OVCAR-3 ovarian) of 85.9 µM. For the same compound, the GI50 (HOP-92 NSCLC) was 2.29 µM, the TGI (HOP-92 NSCLC) was 9.1 µM and the GI50 (MDA-MB-231 breast) was 3.48 µM. The TGI (MDA-MB-231 breast) was 14.5 µM, the GI50 (SK-OV-3 ovarian) was 12.1 µM and the TGI (SK-OV-3 ovarian) was 27 µM. For the same compound, the GI50 (MCF7 breast) was 7.35 µM, the TGI (MCF7 breast) was 36.6 µM and the GI50 (HCC-2998 colon) was 29 µM. The TGI (HCC-2998 colon) was greater than 100 µM, the GI50 (MOLT-4 leukemia) was 12.2 µM and the TGI (MOLT-4 leukemia) was greater than 100 µM. For the same compound, the GI50 (SF-268 CNS) was 12.6 µM, the TGI (SF-268 CNS) was greater than 100 µM and the GI50 (SF-539 CNS) was 2.61 µM. For the same compound, the TGI (SF-539 CNS) was 7.98 µM, the GI50 (SR leukemia) was greater than 100 µM and the TGI (SR leukemia) was greater than 100 µM. The GI50 (RPMI-8226 leukemia) was 9.71 µM, the TGI (RPMI-8226 leukemia) was greater than 100 µM and the GI50 (HCT-15 colon) was 14.7 µM. For the same compound, the TGI (HCT-15 colon) was greater than 100 µM, the GI50 (HL-60(TB) leukemia) was 46.2 µM and the TGI (HL-60(TB) leukemia) was greater than 100 µM. It also gave a GI50 (BT-549 breast) of 14 µM, a TGI (BT-549 breast) of 46.7 µM and a GI50 (HT29 colon) of 29.6 µM. It also gave a TGI (HT29 colon) greater than 100 µM.
